Earlier results in patent US8617618B2, “Topical compositions containing magaldrate” (Difass International S.R.L., priority 2007, dated 2013).

Tests used:
[1] = single and repeated oral doses
gastric pH = details: rapid, persistent ability to maintain the gastric pH
[2] = in water and alcohol; white, crystalline powder
[3] = humans, oral intake

Magaldrate
toxicity [1]: almost non-toxic | gastric pH maintained (gastric pH): 3-5 | solubility [2]: insoluble | absorption of aluminium or magnesium [3]: not followed by any significant absorption
